Laboratory results taken from ChEMBL document CHEMBL2040802, “Synthesis and pharmacological activity of N-(2,2-dimethyl-3,4-dihydro-2H-1-benzopyran-4-yl)-4H-1,2,4-benzothiadiazine-3-carboxamides 1,1-dioxides on rat uterus, rat aorta and rat pancreatic β-cells” (Eur J Med Chem, 2012).

Columns and labels:
[1] = Myorelaxant effect in oxytoxin-induced Wistar rat uterus smooth muscle assessed as residual contractile activity by continuous superfusion of oxytocin at 10 uM; assay type: functional
[2] = Inhibition of glucose-induced insulin secretion from Wistar rat pancreatic islet assessed as residual insulin release at 50 uM after 90 mins by radiometric analysis; assay type: functional
[3] = Myorelaxant effect in oxytoxin-induced Wistar rat uterus smooth muscle assessed as residual contractile activity by continuous superfusion of oxytocin at 50 uM; assay type: functional
Aorta = test: Myorelaxant activity in Wistar rat aorta rings assessed as inhibition of KCl-induced contraction; assay type: functional, tissue-based
[4] = Myorelaxant effect in oxytoxin-induced Wistar rat uterus smooth muscle assessed as residual contractile activity by continuous superfusion of oxytocin at 100 uM; assay type: functional

Compound | Activity [1] | Activity [2] | Activity [3] | EC50 (Aorta) | Activity [4]
Cc1ccc2c(c1)S(=O)(=O)N=C(C(=O)NC1CC(C)(C)Oc3ccc(F)cc31)N2 (centres undefined) | 116.6% | 96.9% | 132.4% | > 30 µM | 124.4%
CC1(C)CC(NC(=O)C2=NS(=O)(=O)c3cc(Cl)ccc3N2)c2cc([N+](=O)[O-])ccc2O1 (centres undefined) | 97.9% | 77% | 70.9% | > 30 µM | 34.7%
CC1(C)Oc2ccc(C#N)cc2[C@@H](N2CCCC2=O)[C@@H]1O (relative stereo) [LEVCROMAKALIM] |  | 77.2% |  |  | 
CC1(C)CC(NC(=O)C2=NS(=O)(=O)c3ccccc3N2)c2cc(Br)ccc2O1 (centres undefined) | 60.1% | 86.7% | 44.3% | > 30 µM | 19.9%
Cc1ccc2c(c1)S(=O)(=O)N=C(C(=O)NC1CC(C)(C)Oc3ccc([N+](=O)[O-])cc31)N2 (centres undefined) | 103.9% | 75.7% | 94.9% | > 30 µM | 90.6%
CC1(C)CC(NC(=O)C2=NS(=O)(=O)c3ccccc3N2)c2cc([N+](=O)[O-])ccc2O1 (centres undefined) | 96.8% | 77.9% | 62.4% | > 30 µM | 34.7%
Cc1ccc2c(c1)S(=O)(=O)N=C(C(=O)NC1CC(C)(C)Oc3ccc(Br)cc31)N2 (centres undefined) | 76.8% | 91.4% | 44.5% | > 30 µM | 6.6%
CC1=Nc2ccc(Cl)cc2S(=O)(=O)N1 [DIAZOXIDE] | 93.8% | 28.8% | 76.3% |  | 67.7%
CC(N/C(=N\C#N)Nc1ccncc1)C(C)(C)C (centres undefined) [PINACIDIL ANHYDROUS] | 58.1% | 92.1% | 35.5% |  | 38.1%
CC1(C)CC(NC(=O)C2=NS(=O)(=O)c3ccccc3N2)c2cc(F)ccc2O1 (centres undefined) | 123.7% | 77.3% | 97.9% | > 30 µM | 76.8%
